Results reported in the NIST ThermoML archive (doi:10.1021/je800920d).
Numbers after ± are expanded uncertainties.

How the values were obtained:
[1] = Molar enthalpy of transition or fusion; conditions: Crystal; DSC
[2] = Crystal; DTA

- Molar enthalpy of transition or fusion [1]: 7.5 ± 0.215 kcal/mol
- Normal melting temperature [2]: 154.6 ± 0.5 °C
SMILES: COc1ccc2cc([C@H](C)C(=O)O)ccc2c1 [(S)-(+)-naproxen]
